Test results as given in US10065990B2, “Cyclic peptide compound, and preparation method, pharmaceutical composition and use thereof” (HANGZHOU GUANYU BIO-MEDICAL CO., LTD, priority 2013, dated 2018).
Read-outs that look alike come from different tables or passages of the source.

Legend:
[1] = tested on: lncap (prostate cancer cells); assay: MTT cancer cell growth inhibition; assay type: cell-based; conditions: Homo sapiens, LNCaP, 72 h, MTT, 72 hours incubation, read-out: GI50 lnca
How it was run: (§1)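 Read-out was formazan absorbance at 570 nm after a 4 h MTT step and DMSO solubilisation, converted to cell viability and fitted for GI50. Beforehand, cells (1500/well, overnight attachment) were treated with compound at 10^−5 to 10^−10 M for 72 h at 37° C.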

[2] = tested on: HT1080 (human fibrosarcoma cells); assay: MTT cancer cell growth inhibition; assay type: cell-based; conditions: Homo sapiens, HT-1080, 72 h, MTT, 72 hours incubation, read-out: GI50 HT1
How it was run: as §1

[3] = tested on: HCC827 (human non-small cell lung cancer cells); assay: MTT cancer cell growth inhibition; assay type: cell-based; conditions: Homo sapiens, HCC827, 72 h, MTT, 72 hours incubation, HCC827 cells; read-out: GI50 HCC827
How it was run: as §1

[4] = tested on: Hela (human cervical cancer cells); assay: MTT cancer cell growth inhibition; assay type: cell-based; conditions: Homo sapiens, HeLa, 72 h, MTT, 72 hours incubation, read-out: GI50 Hela
How it was run: as §1

[5] = tested on: BGC-823 (human gastric cancer cells); assay: MTT cancer cell growth inhibition; assay type: cell-based; conditions: Homo sapiens, BGC-823, 72 h, MTT, 72 hours incubation, read-out: GI50 BG
How it was run: as §1

[6] = tested on: K562 (human leukemia cells); assay: MTT cancer cell growth inhibition; assay type: cell-based; conditions: Homo sapiens, K562, 72 h, MTT, 72 hours incubation, K562 cells; read-out: GI50 K562
How it was run: as §1

[7] = tested on: DU145 (human prostate cancer cells); assay: MTT cancer cell growth inhibition; assay type: cell-based; conditions: Homo sapiens, DU-145, 72 h, MTT, 72 hours incubation, read-out: GI50 Du1
How it was run: as §1

[8] = tested on: A549 (human lung cancer cells); assay: MTT cancer cell growth inhibition; assay type: cell-based; conditions: Homo sapiens, A549, 72 h, MTT, 72 hours incubation, read-out: GI50 A54
How it was run: as §1

[9] = tested on: SGC-7901 (human gastric cancer cells); assay: MTT cancer cell growth inhibition; assay type: cell-based; conditions: Homo sapiens, SGC-7901, 72 h, MTT, 72 hours incubation, SGC-7901 cells; read-out: GI50 SGC-7901
How it was run: as §1

[10] = tested on: H1975 (non-small cell lung adenocarcinoma); assay: MTT cancer cell growth inhibition; assay type: cell-based; conditions: Homo sapiens, NCI-H1975, 72 h, MTT, 72 hours incubation, H1975 cells; read-out: GI50 H1975
How it was run: as §1

[11] = tested on: MOLT-4 (human acute lymphoblastic leukemia cells); assay: MTT cancer cell growth inhibition; assay type: cell-based; conditions: Homo sapiens, MOLT-4, 72 h, MTT, 72 hours incubation, read-out: GI50 Mol
How it was run: as §1

[12] = tested on: KBM-5 (human chronic myelogenous leukemia); assay: MTT cancer cell growth inhibition; assay type: cell-based; conditions: Homo sapiens, KBM5, 72 h, MTT, 72 hours incubation, KBM-5 cells; read-out: GI50 KBM-5
How it was run: as §1

[13] = tested on: Huh-7 (human hepatoma cells); assay: MTT cancer cell growth inhibition; assay type: cell-based; conditions: Homo sapiens, Huh-7, 72 h, MTT, 72 hours incubation, Huh-7 cells; read-out: GI50 Huh-7
How it was run: as §1

[14] = tested on: Bel-7402 (human hepatoma cells); assay: MTT cancer cell growth inhibition; assay type: cell-based; conditions: Homo sapiens, Bel-7402, 72 h, MTT, 72 hours incubation, Bel-7402 cells; read-out: GI50 Bel-7402
How it was run: as §1

[15] = tested on: N-87 (human gastric cancer cells); assay: MTT cancer cell growth inhibition; assay type: cell-based; conditions: Homo sapiens, 72 h, MTT, 72 hours incubation, N-87 cells; read-out: GI50 N-87
How it was run: as §1

[16] = tested on: U937 (human leukemia cells); assay: MTT cancer cell growth inhibition; assay type: cell-based; conditions: Homo sapiens, U-937, 72 h, MTT, 72 hours incubation, read-out: GI50 U93
How it was run: as §1

[17] = tested on: PANC-1 (Pac-1, human pancreatic cancer cells); assay: MTT cancer cell growth inhibition; assay type: cell-based; conditions: Homo sapiens, PANC-1, 72 h, MTT, 72 hours incubation, read-out: GI50 PAN
How it was run: as §1

[18] = tested on: KBM5-T315I (human chronic myelogenous leukemia); assay: MTT cancer cell growth inhibition; assay type: cell-based; conditions: Homo sapiens, 72 h, MTT, 72 hours incubation, KBM5-T315I cells; read-out: GI50 KBM5-T315I
How it was run: as §1

[19] = tested on: MDA-MB-231 (breast cancer cells); assay: MTT cancer cell growth inhibition; assay type: cell-based; conditions: Homo sapiens, MDA-MB-231, 72 h, read-out: GI50 MDA-MB-231, MTT, 72 hours incubation, MDA-MB-231 cells
How it was run: as §1

[20] = tested on: MCF-7 (human breast cancer cells); assay: MTT cancer cell growth inhibition; assay type: cell-based; conditions: Homo sapiens, MCF7, 72 h, 72 hours incubation, read-out: GI50 MCF
How it was run: as §1

HDAC7 = target: T1, HDAC7 (Homo sapiens, UniProt Q8WUI4); assay: HDAC biochemical activity measurement (fluorescent substrate deacetylation);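 note: fluorogenic deacetylation assay using acetyl-lysine substrate at 20 µM, enzyme and compound incubated 30 min at 37 °C, then developer added, fluorescence read at 360/460 nm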; conditions: HDAC7; 37° C. 30 minutes
T1 sequence (Q8WUI4 1-952): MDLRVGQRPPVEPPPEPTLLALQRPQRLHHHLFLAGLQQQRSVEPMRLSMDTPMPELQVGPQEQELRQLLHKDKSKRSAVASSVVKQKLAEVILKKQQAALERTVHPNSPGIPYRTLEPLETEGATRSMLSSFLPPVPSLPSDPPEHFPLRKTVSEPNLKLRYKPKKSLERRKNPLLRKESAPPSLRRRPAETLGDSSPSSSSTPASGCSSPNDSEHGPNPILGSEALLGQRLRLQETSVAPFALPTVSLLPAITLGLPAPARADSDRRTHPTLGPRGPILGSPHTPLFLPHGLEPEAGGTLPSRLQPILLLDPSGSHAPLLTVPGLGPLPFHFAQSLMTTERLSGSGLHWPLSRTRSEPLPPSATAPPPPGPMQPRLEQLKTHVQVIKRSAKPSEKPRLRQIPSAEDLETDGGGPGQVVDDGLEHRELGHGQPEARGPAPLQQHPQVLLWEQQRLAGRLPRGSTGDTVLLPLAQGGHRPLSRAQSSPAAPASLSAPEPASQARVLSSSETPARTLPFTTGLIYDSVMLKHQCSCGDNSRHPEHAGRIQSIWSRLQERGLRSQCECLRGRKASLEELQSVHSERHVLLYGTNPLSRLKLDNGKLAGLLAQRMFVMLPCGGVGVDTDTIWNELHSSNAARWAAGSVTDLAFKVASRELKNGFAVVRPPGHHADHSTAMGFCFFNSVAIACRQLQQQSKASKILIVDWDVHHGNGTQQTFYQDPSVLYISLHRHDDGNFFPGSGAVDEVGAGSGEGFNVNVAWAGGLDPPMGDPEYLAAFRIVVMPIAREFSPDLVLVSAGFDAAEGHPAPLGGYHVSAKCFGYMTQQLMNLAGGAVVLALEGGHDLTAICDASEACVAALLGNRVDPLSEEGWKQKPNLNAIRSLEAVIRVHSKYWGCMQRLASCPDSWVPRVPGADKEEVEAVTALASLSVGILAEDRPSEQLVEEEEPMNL

SMILES | GI50 [1] [nM] | GI50 [2] [nM] | GI50 [3] [nM] | GI50 [4] [nM] | GI50 [5] [nM] | GI50 [6] [nM] | GI50 [7] [nM] | GI50 [8] [nM] | GI50 [9] [nM] | GI50 [10] [nM] | GI50 [11] [nM] | GI50 [12] [nM] | GI50 [13] [nM] | GI50 [14] [nM] | GI50 [15] [nM] | GI50 [16] [nM] | GI50 [17] [nM] | GI50 [18] [nM] | GI50 [19] [nM] | IC50 HDAC7 (HDAC7) | also measured
C/C=C1\NC(=O)c2nc(ccc2F)CNC(=O)C[C@@H](/C=C/CCS)OC(=O)[C@H](C(C)C)NC1=O [Compound 106] | 30 | 30 | 43 | 50 | 20 | 27 | 30 | 60 | 35 | 68 | 30 | 56 | 31 | 66 | 12 | 20 | 30 | 76 | 19 | no activity | GI50 [20]: 30 nM
C/C=C1\NC(=O)c2nc(ccc2SC)CNC(=O)C[C@@H](/C=C/CCS)OC(=O)[C@H](C(C)C)NC1=O [Compound 226] | – | – | 33 | – | – | 61 | – | – | 23 | 37 | – | 75 | 68 | 31 | 35 | – | – | 65 | 34 | no activity | GI50 ([1]; lncap cells): 30 nM; GI50 ([2]; HT1080 cells): 20 nM; GI50 ([4]; Hela cells): 90 nM; GI50 ([5]; BGC-823 cells): 50 nM; GI50 ([7]; DU145 cells): 30 nM; GI50 ([8]; A549 cells): 60 nM; GI50 ([11]; MOLT-4 cells): 30 nM; GI50 ([16]; U937 cells): 40 nM; GI50 ([17]; PANC-1 cells): 20 nM; GI50 ([20]; MCF-7 cells): 20 nM
C/C=C1\NC(=O)c2ccc(SC)c(n2)CNC(=O)C[C@@H](/C=C/CCSC(C)=O)OC(=O)[C@@H](C)NC1=O [Compound 222] | – | – | 63 | – | – | 83 | – | – | 47 | 83 | – | 43 | 39 | 14 | 98 | – | – | 35 | 52 | no activity | GI50 ([1]; lncap cells): 60 nM; GI50 ([2]; HT1080 cells): 70 nM; GI50 ([4]; Hela cells): 20 nM; GI50 ([5]; BGC-823 cells): 40 nM; GI50 ([7]; DU145 cells): 30 nM; GI50 ([8]; A549 cells): 50 nM; GI50 ([11]; MOLT-4 cells): 30 nM; GI50 ([16]; U937 cells): 80 nM; GI50 ([17]; PANC-1 cells): 30 nM; GI50 ([20]; MCF-7 cells): 70 nM
C/C=C1\NC(=O)c2ccc(F)c(n2)CNC(=O)C[C@@H](/C=C/CCSC(C)=O)OC(=O)[C@@H](C)NC1=O [Compound 102] | 30 | 50 | 58 | 30 | 30 | 28 | 20 | 50 | 31 | 35 | 30 | 67 | 73 | 11 | 46 | 40 | 50 | 71 | 26 | no activity | GI50 [20]: 30 nM
C/C=C1\NC(=O)c2cccc(n2)CNC(=O)C[C@@H](/C=C/CCS)OC(=O)[C@H](Cc2ccc(O)cc2)NC1=O [Compound 127] | 80 | 80 | 38 | 80 | 50 | 28 | 70 | 50 | 36 | 36 | 80 | 53 | 71 | 37 | 46 | 50 | 50 | 28 | 37 | no activity | GI50 [20]: 70 nM
C/C=C1\NC(=O)c2cc(F)cc(n2)CNC(=O)C[C@@H](/C=C/CCS)OC(=O)[C@H](Cc2ccc(O)cc2)NC1=O [Compound 129] | 70 | 130 | 22 | 40 | 30 | 42 | 30 | 80 | 33 | 33 | 60 | 35 | 38 | 41 | 21 | 10 | 50 | 42 | 41 | no activity | GI50 [20]: 30 nM
C/C=C1\NC(=O)c2nc(ccc2SC)CNC(=O)C[C@@H](/C=C/CCSC(C)=O)OC(=O)[C@H](Cc2cccc3ccccc23)NC1=O [Compound 198] | – | – | 57 | – | – | 79 | – | – | 16 | 31 | – | 99 | 47 | 63 | 38 | – | – | 43 | 45 | no activity | GI50 ([1]; lncap cells): 90 nM; GI50 ([2]; HT1080 cells): 20 nM; GI50 ([4]; Hela cells): 30 nM; GI50 ([5]; BGC-823 cells): 70 nM; GI50 ([7]; DU145 cells): 50 nM; GI50 ([8]; A549 cells): 50 nM; GI50 ([11]; MOLT-4 cells): 20 nM; GI50 ([16]; U937 cells): 50 nM; GI50 ([17]; PANC-1 cells): 30 nM; GI50 ([20]; MCF-7 cells): 110 nM
